# Values of other authors as cited in patent publication US9622975B2, “Pharmaceutical composition” (Novartis AG, priority 2005, dated 2017).
# Key:
# [1] = especially in the alkaline conditions of the intestine
# [2] = in vivo
Compound,water solubility [1],absorbed by the gastro-intestinal tract [2]
"O=C(O)CCCCCCCNC(=O)c1ccccc1O [SNAC, N-(8-[2-hydroxybenzoyl]amino) caprylic acid]",very water soluble,–
"O=C(O)CCCCCCCCCNC(=O)c1ccccc1O [SNAD, N-(10-[2-hydroxybenzoyl]amino) decanoic acid]",–,greater than 90%
"O=C(O)CCCCCCCNC(=O)c1cc(Cl)ccc1O [Example 5-CNAC, N-(5-chlorosalicyloyl)-8-aminocaprylic acid]",very water soluble,–
